# Values quoted from earlier work as cited in patent publication US20220242810A1, “CRYSTALLINE CANNABIGEROL” (Purisys LLC, priority 2019, published 2022).
# Tests used:
# [1] = rats
# 5-HT1A receptor = biological target: T1, 5-HT1A receptor (Homo sapiens, UniProt P08908)
# T1 sequence (P08908 1-422): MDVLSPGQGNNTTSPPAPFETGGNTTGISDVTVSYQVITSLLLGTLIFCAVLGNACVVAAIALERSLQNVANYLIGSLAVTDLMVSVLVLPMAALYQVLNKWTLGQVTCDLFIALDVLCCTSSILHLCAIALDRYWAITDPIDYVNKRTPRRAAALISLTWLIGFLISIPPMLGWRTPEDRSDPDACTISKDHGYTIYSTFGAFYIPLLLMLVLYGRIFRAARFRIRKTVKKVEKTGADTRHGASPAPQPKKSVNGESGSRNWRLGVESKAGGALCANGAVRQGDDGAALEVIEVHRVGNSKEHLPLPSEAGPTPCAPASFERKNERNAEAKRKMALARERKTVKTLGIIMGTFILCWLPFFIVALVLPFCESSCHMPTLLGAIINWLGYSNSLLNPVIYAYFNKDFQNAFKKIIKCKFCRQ
# [2] = tested on: uptake of γ-aminobutyric acid (GABA)
# [3] = in vivo
# CB2 receptor = CB2 receptor (Homo sapiens, UniProt P34972); conditions: unknown whether agonist or antagonist
# Chain of CB2 receptor (P34972 whole entry): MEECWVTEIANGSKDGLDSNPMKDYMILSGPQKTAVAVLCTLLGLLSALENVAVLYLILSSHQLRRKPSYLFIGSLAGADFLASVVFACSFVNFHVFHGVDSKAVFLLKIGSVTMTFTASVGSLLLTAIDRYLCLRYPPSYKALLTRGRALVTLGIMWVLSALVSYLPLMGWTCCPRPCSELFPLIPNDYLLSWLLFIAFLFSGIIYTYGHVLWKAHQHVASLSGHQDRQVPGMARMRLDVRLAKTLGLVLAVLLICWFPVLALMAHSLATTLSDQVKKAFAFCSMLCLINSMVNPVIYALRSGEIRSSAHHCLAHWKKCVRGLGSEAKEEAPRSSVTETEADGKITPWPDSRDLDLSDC
# colon cancer cells = conditions: one study
# CBI receptor = CBI receptor (Homo sapiens, UniProt P21554)
# Chain of CBI receptor (P21554 whole entry): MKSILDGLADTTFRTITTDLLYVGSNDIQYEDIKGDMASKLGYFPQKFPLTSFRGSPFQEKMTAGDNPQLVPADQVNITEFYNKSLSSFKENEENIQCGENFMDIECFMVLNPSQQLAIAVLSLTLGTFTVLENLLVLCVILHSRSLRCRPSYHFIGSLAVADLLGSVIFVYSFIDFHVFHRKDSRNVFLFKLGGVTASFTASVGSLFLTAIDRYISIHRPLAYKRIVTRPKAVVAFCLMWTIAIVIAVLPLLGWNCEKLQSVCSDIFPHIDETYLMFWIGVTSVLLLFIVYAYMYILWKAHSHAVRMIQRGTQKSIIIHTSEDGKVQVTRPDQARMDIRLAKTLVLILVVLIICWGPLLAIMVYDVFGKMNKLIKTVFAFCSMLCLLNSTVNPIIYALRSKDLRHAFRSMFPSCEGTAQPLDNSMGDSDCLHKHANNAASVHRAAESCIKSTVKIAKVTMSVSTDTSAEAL
compound,measurement,setting,value
"CCCCCc1cc(O)c(C/C=C(\C)CCC=C(C)C)c(O)c1 [CBG, 2-[(2E)-3,7-dimethylocta-2,6-dienyl]-5-pentyl-benzene-1,3-diol]",anti-nausea and anti-emetic effect,[1],anti-nausea and anti-emetic effect
same,affinity as α2-adrenergic receptor agonist,α2-adrenergic receptor,high affinity
same,affinity as 5-HT1A receptor antagonist,5-HT1A receptor,moderate affinity
same,uptake of γ-aminobutyric acid (GABA) in the brain,[2],inhibits the uptake
same,effect on intraocular pressure,[3],relieve intraocular pressure
same,binding with the CB2 receptor,CB2 receptor,known to bind
same,growth of colon cancer cells,colon cancer cells,inhibits the growth
same,affinity as CBI receptor antagonist,CBI receptor,low affinity
